We go through 6 molecules from publication PMC11106675, “Synthesis of 1,4-azaphosphinine nucleosides and evaluation as inhibitors of human cytidine deaminase and APOBEC3A” (Beilstein Journal of Organic Chemistry, 2024).

Like-named read-outs stand apart in the source and are kept apart here.

The target in data set [1] is T1, human cytidine deaminase (hCDA) (Homo sapiens, UniProt P32320).
T1 construct: purchased Sigma-Aldrich SRP6372; host or cells: E. coli
Description: UV kinetic assay of hCDA-catalysed 2'-deoxycytidine deamination. It counts as biochemical. The note with it: for Ki: substrate dC, competitive inhibition assumed. Here is the method: We monitored the hCDA-catalysed deamination of dC at 286 nm and analysed the kinetic profiles at various inhibitor concentrations using a global regression analysis of the kinetic data using Lambert’s W function. This method provides better estimates for the Michaelis–Menten constant (KM) and maximum velocity (Vmax) than nonlinear regression analysis of the initial rate (V0). […] Then, KM for the substrate and Ki for each inhibitor were calculated, assuming competitive nature of the inhibitors (Table 1).
We assumed that protonation of Va might result in some inhibition of hCDA. […] This means that the pH value of the assay should be close to pH 1.5 to see any meaningful effect of partially protonated compound Va, but hCDA would be denatured at this pH value. By lowering the pH value to 6.0, dZ (IIc) started to lose potency against hCDA (Table 1), which might be a result of protonation of the pyrimidine ring in dZ (IIc). […] At this pH value, less than 1 in 1,000 molecules of Va might be protonated, which could mean that protonated acid Va is a potent hCDA inhibitor.
Protein expression and purification
Recombinant human cytidine deaminase (hCDA) expressed in E.Coli was purchased form Sigma-Aldrich, product No SRP6372. […]
UV kinetic assay of hCDA-catalysed 2'-deoxycytidine
UV spectroscopy was used to monitor hCDA-catalysed deamination of 2'-deoxycytidine at 286 nm in 100 mM NaCl, 50 mM phosphate buffer at 25 °C at various pH as mentioned in the text. Cary 300 Bio UV-vis spectrometer from Varian was used. Enzymatic reactions were performed in a q uartz cuvette (0.1 cm). Deamination of 2'-deoxycytidine leads to a decrease in absorption at 286 nm (Figure […]
Figure S10. hCDA (27nM) catalysed deamination of 2'-deoxycitidine (⁓1.5 mM) in the absence (plus) and presence of 5 µM 2'-deoxyzebularine (IIc, asterisk) monitored by measuring absorbance at 286 nm over time in 100 mM NaCl, 1 mM TCEP, 50 mM phosphate buffer at 25 °C, at pH 7.4.
The uninhibited deamination (pluses, Figure S10) and the inhibited reaction start at about the same speed. As the reaction progresses, the inhibited reaction becomes slower, as its observed KM is larger than in the uninhibited case. In order to be able to visualize the fitted curves, only every 5th data point is plotted. The data was then fitted using Gnuplot to the integrated Michaelis Menten equation [10]: […]
(1 picture or pasted object on this page, not shown here) […]
where mm(t) calculates the current substrate concentration with respect to the time, t. The four parameters which are fitted are KM and vmax, the Michaelis-Menten constants, c is the initial substrate concentration and d is a baseline correction parameter. A summary of the measured inhibition […]
An increase in concentration of an inhibitor in enzymatic reaction leads to an increase in the observed KM value. The plot of observed KM values versus inhibitor concentration (Figures S11–S13) was then fitted with linear regression (y = ax + b) to derive the inhibition constant (Ki) using the following […]
Uncertainty of Ki was calculated using error-propagation method.
Figure S11. A plot of observed KM versus various concentration of dZ (IIc) in hCDA (27 nM) catalysed deamination of 2'-deoxycitidine in 100 mM NaCl, 1 mM TCEP, 50 mM phosphate buffer at 25 °C, at pH 7.4. […]

A short description of data set [2]: Estimation of pKa from change of λmax as a function of pH. It counts as physicochemical. The note with it: estimated from change in λmax as a function of pH. Here is the method:
Figure S6. UV-vis spectra of compounds Va (A) and Vb (B) at 100 µM in 20 mM phosphate buffer, containing 10 %
Estimation of pKa of nucleoside Va
A change of λmax of nucleoside Va as a function of pH of the solution was plotted (Figure below) and
Figure S7. Change in λmax of nucleoside Va as a function of pH.
(1 picture or pasted object on this page, not shown here)

A short description of data set [3]: Stability in aqueous solution (NMR samples). It counts as physicochemical. The note with it: for stability in sodium phosphate buffer: pH 7.0, NMR samples, several days. The source says:
Catalytic hydrogenation is usually used for the removal of benzyl protecting groups. However, standard hydrogenation conditions using 10% Pd/C led to reduction of the C=C double bond in the nucleobase, providing nucleoside 24 (Scheme 3). To circumvent this problem, we used poisoned Pd catalyst (Lindlar’s catalyst, 5% Pd/CaCO3/3% Pb) and obtained the desired nucleoside 18. Individual anomers of nucleosides 18 and 24 were separated on a C18 column using a gradient of CH3CN in H2O. Removal of toluoyl groups was accomplished in aq NH3, providing pure α- and β-nucleoside of Va and Vc, respectively, carrying a negatively charged phosphinic acid group.

Data set [4] concerns A3 enzymes. Also noted: method as in PMID 30418757. The following applies: as the free nucleoside; cited from earlier work.

T1 sequence (P32320 whole entry): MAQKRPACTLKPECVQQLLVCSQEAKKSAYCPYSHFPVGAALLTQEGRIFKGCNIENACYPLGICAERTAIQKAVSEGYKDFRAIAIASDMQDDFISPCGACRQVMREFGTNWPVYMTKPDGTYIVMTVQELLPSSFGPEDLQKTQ

In general, Ki refers to the equilibrium dissociation constant of an inhibitor or competing ligand from its target. The pKa is the negative logarithm of the acid dissociation constant. Regarding `O=C1CP(=O)(O)C=CN1C1CC(O)C(CO)O1` (stereo not drawn) [Va], in data set [1] (pH 7.4, 25 °C), the Ki entry is listed as “lack of inhibition”. For the same molecule, the pKa in data set [2] is ≤ 1.5. In data set [3], the “stability in sodium phosphate buffer” value is “no decomposition”. In addition, in data set [3] (pH 7.4), the stability in water entry was “excellent stability”.

`O=C1CP(=O)(O)CCN1C1CC(O)C(CO)O1` (stereo not drawn) [Vc]: in data set [3], the “stability in sodium phosphate buffer” value was “no decomposition”.

In general, Km refers to the concentration of substrate that gives half-maximal velocity. Consider `Nc1ccn([C@H]2C[C@H](O)[C@@H](CO)O2)c(=O)n1` [dC, 2'-deoxycytidine, reference compound], for which, in data set [1] (pH 7.4, fitted in the experiment with inhibitor dZ (IIc), read-out: Km of dC), the Km worked out at 260 ± 40 µM.

For `O=c1ncccn1[C@H]1C[C@H](O)[C@@H](CO)O1` [dZ (IIc), 2'-deoxyzebularine, reference compound], the Km/Ki in data set [1] (pH 6.0) came to 5.5; in data set [1] (pH 7.4), 24. Also, in data set [1] (pH 6.0, 25 °C, read-out: Ki), the Ki turned out to be 49 ± 13 µM. Besides, the “inhibition of A3 enzymes” value in data set [4] is given as “does not inhibit”.

On to `O=C1CP(=O)(O)C=CN1C1CC(O)C(CO)O1` (stereo not drawn) [β-anomer of Va], for which the Ki is 560 ± 100 µM in data set [1] (pH 4.7, 25 °C, read-out: Ki); “no inhibition” in data set [1] (pH 6.0, 25 °C); “no inhibition” in data set [1] (pH 7.4, 25 °C).

For the molecule `NP1(=O)C=CN(C2CC(O)C(CO)O2)C(=O)C1` (stereo not drawn) [β-anomer of Vb], the Km/Ki in data set [1] (pH 7.4) amounted to 30. In addition, the Ki in data set [1] (pH 7.4, 25 °C, read-out: Ki) turned out to be 8 ± 1.9 µM.
